Measured values taken from US20240150297A1, “NOVEL COMPOUNDS COMPRISING A NEW CLASS OF TRANSTHYRETIN LIGANDS FOR TREATMENT OF COMMON AGE-RELATED COMORBIDITIES” (The Trustees of Columbia University in the City of New York, priority 2021, published 2024).
Where two headings read alike, the source gives them in different places.

Assays:
[1] = molecular target: native RBP4 purified from human urine (Homo sapiens (Human), UniProt P02753); assay: RBP4 scintillation proximity (SPA) binding assay; conditions: read-out: RBP4 SPA IC50; fixed 10 nM 3H-retinol
[2] = Metabolic stability and clearance in mouse liver microsomes; assay type: in vitro ADME
Protocol: (§1) The results of metabolic stability determinations for novel compounds and testosterone (positive control) were conducted in the presence of human, rat, mouse, and monkey liver microsomes. Values shown are percent of parent remaining after a 30 minute incubation. All measurements were done in duplicate. Assay results for testosterone were within an acceptable range.
(§2) Mixed-gender human liver microsomes (Lot# 1710084), male Sprague-Dawley rat liver microsomes (Lot# 1610290), male CD-1 mouse liver microsomes (Lot# 1710069), and male Cynomolgous liver microsomes (Lot# 1510193) were purchased from XenoTech. […]. The test article was added into the reaction mixture at a final concentration of 1 μM. The control compound, testosterone, was run simultaneously with the test article in a separate reaction. An aliquot of the reaction mixture (without cofactor) was equilibrated in a shaking water bath at 37° C. for 3 minutes. The reaction was initiated by the addition of cofactor, and the mixture was incubated in a shaking water bath at 37° C. Aliquots (100 μL) were withdrawn at 0, 10, 20, 30, and 60 minutes. Test article and testosterone samples were immediately combined with 400 μL of ice-cold 50/50 acetonitrile (ACN)/H2O containing 0.1% formic acid and internal standard to terminate the reaction. […] Half-lives were calculated using GraphPad software, fitting to a single-phase exponential decay equation.

serum RBP4 = assay: Serum RBP4 measurement after single oral dose in mice (PK-PD); assay type: in vivo, mouse
Protocol: FIG. 6. Pharmacokinetic and pharmacodynamic properties of 18a in mice. […]. Data are presented as means±SD. Three mice per treatment group were used in the PK-PD study.
Blood samples were collected from a tail vein. Whole blood was drawn into a centrifuge tube and was allowed to clot at room temperature for 30 minutes followed by centrifugation at 2000 g for 15 minutes at […] to collect serum. […] Whole blood was drawn into a centrifuge tube and was allowed to clot at room temperature for 30 min followed by centrifugation at 2000 g for 15 min at +4° C to collect serum.
There was no effect of compound dosing on serum TTR levels (data not shown). […].

[3] = Metabolic stability and clearance in cynomolgus monkey liver microsomes; assay type: in vitro ADME
Protocol: as §1, §2

Kinetic solubility assay = assay type: physicochemical; conditions: PBS pH 7.4
CYP2C19 = CYP2C19 (Homo sapiens (Human), UniProt P33261); assay: CYP450 inhibition assay, CYP2C19; assay type: in vitro ADME; conditions: pH 7.4, read-out: CYP Inhibition (% Inhibition at 10 μm) 2C19
[4] = molecular target: peroxisome proliferator-activated receptor-gamma (PPARγ) receptor (Homo sapiens (Human), UniProt P37231); assay: PPARγ activity
[5] = Metabolic stability and clearance in rat liver microsomes; assay type: in vitro ADME
Protocol: as §1, §2

[6] = Plasma protein binding, human; assay type: in vitro ADME
From the text: The peak areas of the test compound in the buffer and test samples were used to calculate percent binding and recovery according to the following formulas:
Areap=Peak area of analyte in protein matrix Areab=Peak area of analyte in buffer Areac=Peak area of analyte in control sample

CYP2D6 = CYP2D6 (Homo sapiens (Human), UniProt P10635)
[7] = CD-1 mice
[8] = Metabolic stability and clearance in human liver microsomes; assay type: in vitro ADME
Protocol: as §1, §2

CYP2C9 = CYP2C9 (Homo sapiens (Human), UniProt P11712); assay: CYP450 inhibition assay, CYP2C9; assay type: in vitro ADME
in vivo = conditions: male, CD-1, mouse
[9] = molecular target: TTR isolated from human plasma (Homo sapiens (Human), UniProt P02766); assay: Fluorescence polarization TTR tetramer binding assay; conditions: fixed 25 μM FITC-coupled TTR FP probe
[10] = 441 ATTR-CM patients; cited from earlier work
human TTR = human TTR (Homo sapiens (Human), UniProt P02766); assay: Low pH-induced TTR aggregation assay (SDS-PAGE/Western blot); assay type: biochemical; conditions: 50 μM compound, pH 4.0, 72 h, 37° C.
Protocol: FIG. 5. […]. Bar graphs represent pixel volume means±S.D. of the scanned bands on the immunoblots in arbitrary units for TTR high-molecular-weight aggregates (B), dimers (C), and monomers (D). Statistical significance was determined by one-way ANOVA with Holm-Sidak post hoc test; *, p≤0.05**, p≤0.01***, p≤0.001; ****, p≤0.0001 compared to TTR aggregation+DMSO group (pH4.0) *, p=0.05, **, p≤0.01; ***, p≤0.001; ****, […] compare to TTR without aggregation group (pH=7.5).
The ability of test compounds to prevent TTR aggregation was evaluated under the acidic conditions that favor TTR aggregation and fibril formation. […] At the end of the incubation, 3.5 μl 500 mM sodium phosphate (Sigma #S5136) buffer (pH=8.0) was added to each sample for neutralization and 0.6 μl 5% CHAPS (Sigma #C5070) as a detergent to prevent reassociation of protein. The cross-linking was performed by adding 1.5 μl 5% glutaraldehyde solution (Sigma# G6257). After 4 min, the reaction was stopped by the addition of 2.5 μl freshly made 5% NaBH4. […] Band intensity for TTR monomer and TTR aggregates was quantified from scanned images of the blots.
The ability of TTR ligands to act as kinetic stabilizers of TTR tetramers was assessed in vitro using a low pH-induced TTR aggregation SDS-PAGE assay (Coelho, T. et al. 2016; Cruz, M. W. 2019). […]

Chain of peroxisome proliferator-activated receptor-gamma (PPARγ) receptor (P37231 whole entry, species assumed): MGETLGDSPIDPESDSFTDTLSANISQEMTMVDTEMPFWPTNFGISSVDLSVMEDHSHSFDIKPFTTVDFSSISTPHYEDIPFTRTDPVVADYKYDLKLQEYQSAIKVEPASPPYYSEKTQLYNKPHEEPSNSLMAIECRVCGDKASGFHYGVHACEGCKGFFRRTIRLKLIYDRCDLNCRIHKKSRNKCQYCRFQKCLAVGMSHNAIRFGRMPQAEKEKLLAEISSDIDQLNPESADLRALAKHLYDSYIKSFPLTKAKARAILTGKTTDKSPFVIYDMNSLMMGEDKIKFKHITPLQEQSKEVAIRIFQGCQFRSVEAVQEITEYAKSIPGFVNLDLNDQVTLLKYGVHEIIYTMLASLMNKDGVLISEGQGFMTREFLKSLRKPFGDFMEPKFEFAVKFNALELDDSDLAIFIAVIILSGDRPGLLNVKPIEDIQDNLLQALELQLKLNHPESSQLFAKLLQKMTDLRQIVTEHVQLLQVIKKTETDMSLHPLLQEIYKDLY
Chain of CYP2C19 (P33261 whole entry): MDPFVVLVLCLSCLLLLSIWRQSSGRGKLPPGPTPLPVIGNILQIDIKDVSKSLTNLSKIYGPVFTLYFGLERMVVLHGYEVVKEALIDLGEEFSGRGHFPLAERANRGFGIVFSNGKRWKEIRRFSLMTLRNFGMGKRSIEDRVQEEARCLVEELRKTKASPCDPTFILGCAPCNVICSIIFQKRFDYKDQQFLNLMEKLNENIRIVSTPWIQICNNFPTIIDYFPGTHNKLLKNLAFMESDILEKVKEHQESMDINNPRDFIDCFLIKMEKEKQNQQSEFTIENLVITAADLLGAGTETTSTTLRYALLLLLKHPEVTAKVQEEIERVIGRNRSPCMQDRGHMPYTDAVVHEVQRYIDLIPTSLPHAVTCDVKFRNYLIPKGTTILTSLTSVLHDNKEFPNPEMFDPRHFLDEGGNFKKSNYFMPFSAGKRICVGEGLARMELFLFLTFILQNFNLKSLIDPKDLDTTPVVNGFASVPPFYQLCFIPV
Chain of CYP2C9 (P11712 whole entry): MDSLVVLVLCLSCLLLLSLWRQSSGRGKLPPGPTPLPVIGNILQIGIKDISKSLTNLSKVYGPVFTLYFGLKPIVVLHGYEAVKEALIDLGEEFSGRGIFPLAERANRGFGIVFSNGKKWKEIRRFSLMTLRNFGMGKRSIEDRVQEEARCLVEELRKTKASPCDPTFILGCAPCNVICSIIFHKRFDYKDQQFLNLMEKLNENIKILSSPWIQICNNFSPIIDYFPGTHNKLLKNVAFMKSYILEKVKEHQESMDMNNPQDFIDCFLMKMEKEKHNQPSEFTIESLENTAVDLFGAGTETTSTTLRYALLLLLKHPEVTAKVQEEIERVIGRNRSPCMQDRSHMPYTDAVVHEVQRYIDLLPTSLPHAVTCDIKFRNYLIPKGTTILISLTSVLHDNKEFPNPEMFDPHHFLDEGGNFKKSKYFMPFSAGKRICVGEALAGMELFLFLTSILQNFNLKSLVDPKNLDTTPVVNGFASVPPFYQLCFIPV
Chain of CYP2D6 (P10635 whole entry): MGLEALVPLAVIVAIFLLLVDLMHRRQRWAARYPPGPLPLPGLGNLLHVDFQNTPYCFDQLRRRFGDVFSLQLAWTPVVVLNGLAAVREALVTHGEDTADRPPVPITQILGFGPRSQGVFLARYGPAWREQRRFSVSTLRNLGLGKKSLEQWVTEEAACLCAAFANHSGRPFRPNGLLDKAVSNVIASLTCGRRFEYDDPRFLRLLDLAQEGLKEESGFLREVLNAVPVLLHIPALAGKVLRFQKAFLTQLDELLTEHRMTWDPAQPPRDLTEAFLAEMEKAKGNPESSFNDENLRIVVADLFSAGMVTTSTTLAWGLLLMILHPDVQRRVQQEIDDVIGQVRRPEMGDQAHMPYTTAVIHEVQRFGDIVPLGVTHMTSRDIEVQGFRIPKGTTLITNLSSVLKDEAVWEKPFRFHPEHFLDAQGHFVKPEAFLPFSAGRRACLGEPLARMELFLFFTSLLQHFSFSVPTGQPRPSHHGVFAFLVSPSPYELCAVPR

Cc1n[nH]c(C)c1CCCOc1cc(C(=O)O)ccc1F [AG10 (4), AG10, reference compound]
IC50 [1]: > 30000 nM

Cc1n[nH]c(C)c1N1CCN(c2cc(C(=O)O)ccc2F)CC1 [Compound 18a, 3-(4-(3,5-Dimethyl-1H-pyrazol-4-yl)piperazin-1-yl)-4-fluorobenzoic Acid]
Liver Microsomal Stability (% remaining at 30 min) MLM ([2]; 30 minute incubation): 102%
microsomal CLint at 1 μM ([2]; male, CD-1, mouse liver microsomes): < 0.0231 µL/min/mg
effect on serum TTR levels (serum RBP4; after compound dosing, data not shown): no effect
maximal reduction in serum RBP4 (serum RBP4; single 25 mg/kg oral dose, 2 h after administration): 66%
Liver Microsomal Stability (% remaining at 30 min) cyno LM ([3]; 30 minute incubation): 94%
microsomal CLint at 1 μM ([3]; male, cynomolgus monkey liver microsomes, read-out: Microsomal CLint, cyno): < 0.0231 µL/min/mg
Kinetic solubility (Kinetic solubility assay): 184.5 µM
inhibition at 10 µM (CYP2C19): 3.1%
EC50 [4]: > 100000 nM
Liver Microsomal Stability (% remaining at 30 min) RLM ([5]; 30 minute incubation): 98%
microsomal CLint at 1 μM ([5]; male, Sprague-Dawley, rat liver microsomes): < 0.0231 µL/min/mg
% PPB human [6]: 83%
CYP Inhibition (% Inhibition at 10 μm) 2D6 (CYP2D6): 2D6 - 8.1%
AUCINF ([7]; IV 2 mg/kg): 6242 ng·h/mL
AUClast ([7]; IV 2 mg/kg): 6214 ng·h/mL
CL, total body clearance ([7]; IV 2 mg/kg): 5.9 mL/min/kg
Vss ([7]; IV 2 mg/kg): 2.18 L/kg
t1/2 ([7]; IV 2 mg/kg): 5.08 h
% F, oral bioavailability ([7]; PO 5 mg/kg vs IV 2 mg/kg): 103%
AUCINF ([7]; PO 5 mg/kg): 16073 ng·h/mL
AUClast ([7]; PO 5 mg/kg): 16040 ng·h/mL
t1/2 ([7]; PO 5 mg/kg): 5.38 h
Liver Microsomal Stability (% remaining at 30 min) HLM ([8]; 30 minute incubation): 93%
microsomal CLint at 1 μM ([8]; both sexes, human liver microsomes): < 0.0231 µL/min/mg
CYP Inhibition (% Inhibition at 10 μm) 2C9 (CYP2C9): 2C9 - 10.4%
clearance (in vivo; iv, 2 mg/kg): 5.9 mL/min/kg
half-life (in vivo; iv, 2 mg/kg): 5.08 h
AUC(0-inf) (in vivo; po, 5 mg/kg): 16100 ng·h/mL
Cmax (in vivo; po, 5 mg/kg): 1560 ng/mL

Cc1n[nH]c(C)c1N1CCN(c2cccc(C(=O)O)c2)CC1 [Compound 18b, 3-(4-(3,5-Dimethyl-1H-pyrazol-4-yl)piperazin-1-yl)benzoic Acid]
IC50 [1]: > 30000 nM

COc1ccc(C(=O)O)cc1N1CCN(c2c(C)n[nH]c2C)CC1 [Compound 18c, 3-(4-(3,5-Dimethyl-1H-pyrazol-4-yl)piperazin-1-yl)-4-methoxybenzoic Acid]
IC50 [1]: > 3000 nM
IC50 [9]: 300 nM

Cc1ccc(C(=O)O)cc1N1CCN(c2c(C)n[nH]c2C)CC1 [Compound 18d, 3-(4-(3,5-Dimethyl-1H-pyrazol-4-yl)piperazin-1-yl)-4-methylbenzoic Acid]
IC50 [1]: > 3000 nM

Cc1n[nH]c(C)c1N1CCN(c2cc(C(=O)O)ccc2C(F)(F)F)CC1 [Compound 18e, 3-(4-(3,5-Dimethyl-1H-pyrazol-4-yl)piperazin-1-yl)-4-(trifluoromethyl)benzoic Acid]
IC50 [1]: > 3000 nM

Cc1n[nH]c(C)c1N1CCN(c2cc(C(=O)O)ccc2Cl)CC1 [Compound 18f, 4-Chloro-3-(4-(3,5-dimethyl-1H-pyrazol-4-yl)piperazin-1-yl)benzoic Acid]
IC50 [1]: > 3000 nM

Cc1n[nH]c(C)c1N1CCN(c2cccc(C(=O)O)c2F)CC1 [Compound 18g, 3-(4-(3,5-Dimethyl-1H-pyrazol-4-yl)piperazin-1-yl)-2-fluorobenzoic Acid]
IC50 [1]: > 3000 nM

Cc1n[nH]c(C)c1N1CCN(c2ccc(F)c(C(=O)O)c2)CC1 [Compound 18h, 5-(4-(3,5-Dimethyl-1H-pyrazol-4-yl)piperazin-1-yl)-2-fluorobenzoic Acid]
IC50 [1]: > 3000 nM

Cc1n[nH]c(C)c1N1CCN(c2cc(F)cc(C(=O)O)c2)CC1 [Compound 18i, 3-(4-(3,5-Dimethyl-1H-pyrazol-4-yl)piperazin-1-yl)-5-fluorobenzoic Acid]
IC50 [1]: > 3000 nM

Cc1cc(F)c(N2CCN(c3c(C)n[nH]c3C)CC2)cc1C(=O)O [Compound 18j, 5-(4-(3,5-Dimethyl-1H-pyrazol-4-yl)piperazin-1-yl)-4-fluoro-2-methylbenzoic Acid]
IC50 [1]: > 3000 nM

Cc1noc(C)c1N1CCN(c2cc(C(=O)O)ccc2F)CC1 [Compound 20, 3-(4-(3,5-Dimethylisoxazol-4-yl)piperazin-1-yl)-4-fluorobenzoic Acid]
IC50 [1]: > 3000 nM

Cc1n[nH]c(C)c1N1CCN(c2cc(C(N)=O)ccc2F)CC1 [Compound 21, 3-(4-(3,5-Dimethyl-1H-pyrazol-4-yl)piperazin-1-yl)-4-fluorobenzamide]
IC50 [1]: > 3000 nM

Cc1n[nH]c(C)c1N1CCN(c2cc(-c3nn[nH]n3)ccc2F)CC1 [Compound 22, 1-(3,5-Dimethyl-1H-pyrazol-4-yl)-4-(2-fluoro-5-(2H-tetrazol-5-yl)phenyl)piperazine]
IC50 [1]: > 3000 nM

CC/C(=C(/CC)c1ccc(O)cc1)c1ccc(O)cc1 [Diethylstilbesterol]
Kinetic solubility (Kinetic solubility assay): 7.0 µM

CC(=O)N1CCN(c2ccc(OCC3COC(Cn4ccnc4)(c4ccc(Cl)cc4Cl)O3)cc2)CC1 (stereo not shown) [Ketoconazole]
Kinetic solubility (Kinetic solubility assay): 152.8 µM

O=C(O)c1ccc2nc(-c3cc(Cl)cc(Cl)c3)oc2c1 [Tafamadis (3), tafamidis]
IC50 [1]: > 30000 nM
reduction of rate of cardiovascular-related hospitalizations compared to placebo [10]: 32%
reduction of risk of death compared to placebo [10]: 30%
formation of high molecular weight forms of TTR (human TTR): significantly inhibited
